# Where “and” joins values, the source holds several entries; their conditions need not be identical. Identical values can stand only once. Like-named read-outs stand apart in the source and are kept apart here.
# What was measured:
# α4 GREFP β2 AChR [1] = target: T1, α4 GREFP β2 AChR (Homo sapiens, UniProt P17787+P43681, I229P/K186G/K222F/T220E/Y218R); format: binding
# α2 GFEP β4 AChR [2] = target: T2, α2 GFEP β4 AChR (Homo sapiens, UniProt P30926+Q15822, D246E/I251P/K208G/K244F); test: cell-based
# T2 sequence (P30926 22-498, stated change not applied): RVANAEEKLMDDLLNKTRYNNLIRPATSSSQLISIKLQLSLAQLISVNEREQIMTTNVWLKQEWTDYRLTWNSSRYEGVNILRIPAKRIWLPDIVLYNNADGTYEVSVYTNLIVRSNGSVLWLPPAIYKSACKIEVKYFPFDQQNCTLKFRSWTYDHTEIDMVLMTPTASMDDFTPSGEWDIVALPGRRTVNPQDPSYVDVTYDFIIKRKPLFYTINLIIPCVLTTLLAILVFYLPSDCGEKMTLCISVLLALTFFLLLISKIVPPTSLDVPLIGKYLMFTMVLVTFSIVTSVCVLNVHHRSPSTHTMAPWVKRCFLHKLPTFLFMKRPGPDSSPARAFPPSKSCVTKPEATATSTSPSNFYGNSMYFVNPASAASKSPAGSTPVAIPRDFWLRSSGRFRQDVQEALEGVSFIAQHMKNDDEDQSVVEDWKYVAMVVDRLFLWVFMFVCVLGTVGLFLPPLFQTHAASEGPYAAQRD
# T2 sequence (Q15822 27-529 K208G/K244F/D246E/I251P): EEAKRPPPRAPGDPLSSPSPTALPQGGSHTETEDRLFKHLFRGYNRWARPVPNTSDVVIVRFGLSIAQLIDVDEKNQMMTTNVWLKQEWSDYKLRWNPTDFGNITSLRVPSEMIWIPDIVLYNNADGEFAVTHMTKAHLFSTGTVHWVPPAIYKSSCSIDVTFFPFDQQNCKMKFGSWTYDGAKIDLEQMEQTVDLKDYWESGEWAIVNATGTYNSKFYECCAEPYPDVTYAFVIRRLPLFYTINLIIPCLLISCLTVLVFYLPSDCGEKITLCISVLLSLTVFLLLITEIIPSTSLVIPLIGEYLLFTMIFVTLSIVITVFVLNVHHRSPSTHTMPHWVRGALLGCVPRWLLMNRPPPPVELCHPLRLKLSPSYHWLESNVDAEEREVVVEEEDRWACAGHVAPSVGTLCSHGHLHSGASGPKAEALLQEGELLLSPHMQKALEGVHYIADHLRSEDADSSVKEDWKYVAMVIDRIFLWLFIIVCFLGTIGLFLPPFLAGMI
# α2 GFEP β4 AChR [3] = target: T2, α2 GFEP β4 AChR
# α3 GFEP β4 AChR [4] = target: T3, α3 GFEP β4 AChR (Homo sapiens, UniProt P30926+P32297, I227P/K184G/K220F/N222E)
# T3 sequence (P32297 32-505 K184G/K220F/N222E/I227P): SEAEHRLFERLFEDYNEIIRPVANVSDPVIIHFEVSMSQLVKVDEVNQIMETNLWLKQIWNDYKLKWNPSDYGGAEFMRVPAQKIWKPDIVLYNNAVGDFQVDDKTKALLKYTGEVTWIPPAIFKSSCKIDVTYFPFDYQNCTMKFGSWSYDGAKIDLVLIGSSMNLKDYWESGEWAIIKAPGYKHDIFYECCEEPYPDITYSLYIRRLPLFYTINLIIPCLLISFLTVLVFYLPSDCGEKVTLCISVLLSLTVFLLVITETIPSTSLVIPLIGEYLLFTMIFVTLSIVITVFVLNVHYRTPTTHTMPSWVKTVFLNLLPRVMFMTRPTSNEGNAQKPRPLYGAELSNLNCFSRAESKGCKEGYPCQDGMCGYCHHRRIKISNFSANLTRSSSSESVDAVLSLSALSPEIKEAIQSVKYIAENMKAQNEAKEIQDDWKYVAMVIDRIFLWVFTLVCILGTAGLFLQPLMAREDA
# T3 sequence (P30926 22-498, stated change not applied): as the sequence (P30926 22-498, stated change not applied) above
# α4 GREFP β4 AChR [5] = target: T4, α4 GREFP β4 AChR (Homo sapiens, UniProt P30926+P43681, I229P/K186G/K222F/T220E/Y218R)
# T4 sequence (P30926 22-498): as the sequence (P30926 22-498, stated change not applied) above
# T4 sequence (P43681 29-627 K186G/Y218R/T220E/K222F/I229P): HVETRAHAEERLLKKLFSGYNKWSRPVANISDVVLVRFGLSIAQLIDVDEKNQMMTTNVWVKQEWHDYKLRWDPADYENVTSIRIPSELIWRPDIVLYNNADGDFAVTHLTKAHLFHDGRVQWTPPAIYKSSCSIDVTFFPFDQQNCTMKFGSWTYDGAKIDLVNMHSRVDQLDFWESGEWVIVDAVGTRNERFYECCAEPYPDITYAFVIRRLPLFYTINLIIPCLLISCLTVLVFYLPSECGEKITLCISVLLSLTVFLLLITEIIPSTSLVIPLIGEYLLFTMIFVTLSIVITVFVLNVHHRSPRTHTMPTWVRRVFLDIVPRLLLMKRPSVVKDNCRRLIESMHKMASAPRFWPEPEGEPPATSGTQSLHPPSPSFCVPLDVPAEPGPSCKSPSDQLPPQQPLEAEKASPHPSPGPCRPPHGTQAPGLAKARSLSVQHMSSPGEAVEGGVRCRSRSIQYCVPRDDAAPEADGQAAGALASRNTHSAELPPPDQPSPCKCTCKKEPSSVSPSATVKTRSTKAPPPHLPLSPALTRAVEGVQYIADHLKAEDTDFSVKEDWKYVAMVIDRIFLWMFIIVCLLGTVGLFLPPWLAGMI
# α2 GFEP β4 AChR [6] = target: T2, α2 GFEP β4 AChR; test: Time course of ^125I-α-BTX dissociation; format: binding
# wild type α4β2 AChR = wild type α4β2 AChR (Homo sapiens, UniProt P17787+P43681); format: binding
# α7 AChR = α7 AChR (Homo sapiens, UniProt P36544); format: binding
# Chain of α7 AChR (P36544 23-502 limits assumed): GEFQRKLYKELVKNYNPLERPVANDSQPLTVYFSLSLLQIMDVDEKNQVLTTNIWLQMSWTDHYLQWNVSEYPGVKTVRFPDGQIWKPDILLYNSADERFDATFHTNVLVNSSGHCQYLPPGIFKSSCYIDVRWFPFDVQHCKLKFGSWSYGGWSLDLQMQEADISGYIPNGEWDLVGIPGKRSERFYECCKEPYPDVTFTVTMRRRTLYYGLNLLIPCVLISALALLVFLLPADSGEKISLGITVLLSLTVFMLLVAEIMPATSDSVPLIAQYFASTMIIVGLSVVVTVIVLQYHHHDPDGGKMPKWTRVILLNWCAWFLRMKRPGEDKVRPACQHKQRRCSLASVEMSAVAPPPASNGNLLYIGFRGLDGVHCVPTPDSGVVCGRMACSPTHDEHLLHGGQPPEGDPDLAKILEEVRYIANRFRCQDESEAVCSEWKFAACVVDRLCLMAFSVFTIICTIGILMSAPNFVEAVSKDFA
# α4 GREFP β4 AChR [7] = target: T4, α4 GREFP β4 AChR; test: Time course of ^125I-α-BTX dissociation; format: binding
# α2 GFEP β2 AChR = α2 GFEP β2 AChR (Homo sapiens, UniProt P17787+Q15822, D246E/I251P/K208G/K244F); format: binding
# Chain of α2 GFEP β2 AChR (P17787 26-502 limits assumed, stated change not applied): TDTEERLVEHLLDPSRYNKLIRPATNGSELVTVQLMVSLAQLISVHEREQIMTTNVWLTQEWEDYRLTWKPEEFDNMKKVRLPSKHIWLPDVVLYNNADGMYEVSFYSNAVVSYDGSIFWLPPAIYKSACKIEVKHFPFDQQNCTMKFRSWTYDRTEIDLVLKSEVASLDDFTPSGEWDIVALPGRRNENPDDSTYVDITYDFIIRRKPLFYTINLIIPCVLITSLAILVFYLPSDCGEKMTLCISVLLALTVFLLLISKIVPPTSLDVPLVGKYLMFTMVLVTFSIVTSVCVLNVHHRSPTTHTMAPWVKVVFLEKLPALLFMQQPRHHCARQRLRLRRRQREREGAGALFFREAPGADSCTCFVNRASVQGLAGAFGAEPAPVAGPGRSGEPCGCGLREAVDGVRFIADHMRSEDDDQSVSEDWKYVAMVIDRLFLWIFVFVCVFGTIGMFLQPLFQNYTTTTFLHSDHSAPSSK
# Chain of α2 GFEP β2 AChR (Q15822 27-529 K208G/K244F/D246E/I251P limits assumed, stated change not applied): as the sequence (Q15822 27-529 K208G/K244F/D246E/I251P) above
# α4 GREFP β2 AChR [8] = target: T1, α4 GREFP β2 AChR; test: Time course of ^125I-α-BTX dissociation; format: binding
# α3 GFEP β4 AChR [9] = target: T3, α3 GFEP β4 AChR; test: Time course of ^125I-α-BTX dissociation; format: binding
# [10] = target: muscle AChR (α1, β, ε, δ) (Homo sapiens, UniProt P02708+Q04844+Q07001); format: binding
# Chain of muscle AChR (α1, β, ε, δ) (P02708 21-457 limits assumed): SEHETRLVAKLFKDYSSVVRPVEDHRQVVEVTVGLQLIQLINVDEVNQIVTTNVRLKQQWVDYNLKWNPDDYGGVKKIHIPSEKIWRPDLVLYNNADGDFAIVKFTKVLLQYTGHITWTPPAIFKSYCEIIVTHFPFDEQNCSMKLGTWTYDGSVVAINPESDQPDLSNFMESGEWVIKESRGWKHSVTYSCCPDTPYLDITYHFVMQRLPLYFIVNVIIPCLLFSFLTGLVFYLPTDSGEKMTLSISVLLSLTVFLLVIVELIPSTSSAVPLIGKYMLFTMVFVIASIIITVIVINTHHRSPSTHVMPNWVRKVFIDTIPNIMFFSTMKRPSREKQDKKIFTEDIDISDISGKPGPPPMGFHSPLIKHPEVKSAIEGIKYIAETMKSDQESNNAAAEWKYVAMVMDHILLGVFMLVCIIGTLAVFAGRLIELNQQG
# Chain of muscle AChR (α1, β, ε, δ) (Q04844 21-493 limits assumed): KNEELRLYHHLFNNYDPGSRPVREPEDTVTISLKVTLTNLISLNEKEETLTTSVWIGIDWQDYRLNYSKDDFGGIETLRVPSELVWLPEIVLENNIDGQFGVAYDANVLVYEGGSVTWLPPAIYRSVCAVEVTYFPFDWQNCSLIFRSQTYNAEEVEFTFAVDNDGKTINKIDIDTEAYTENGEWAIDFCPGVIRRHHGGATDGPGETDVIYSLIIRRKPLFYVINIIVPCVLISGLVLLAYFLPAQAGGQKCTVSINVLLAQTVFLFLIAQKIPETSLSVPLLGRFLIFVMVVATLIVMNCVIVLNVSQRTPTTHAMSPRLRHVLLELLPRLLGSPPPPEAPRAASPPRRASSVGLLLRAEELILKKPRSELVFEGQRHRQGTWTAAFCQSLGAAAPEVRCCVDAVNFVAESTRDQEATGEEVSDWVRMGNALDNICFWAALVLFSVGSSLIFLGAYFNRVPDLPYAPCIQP
# Chain of muscle AChR (α1, β, ε, δ) (Q07001 22-517 limits assumed): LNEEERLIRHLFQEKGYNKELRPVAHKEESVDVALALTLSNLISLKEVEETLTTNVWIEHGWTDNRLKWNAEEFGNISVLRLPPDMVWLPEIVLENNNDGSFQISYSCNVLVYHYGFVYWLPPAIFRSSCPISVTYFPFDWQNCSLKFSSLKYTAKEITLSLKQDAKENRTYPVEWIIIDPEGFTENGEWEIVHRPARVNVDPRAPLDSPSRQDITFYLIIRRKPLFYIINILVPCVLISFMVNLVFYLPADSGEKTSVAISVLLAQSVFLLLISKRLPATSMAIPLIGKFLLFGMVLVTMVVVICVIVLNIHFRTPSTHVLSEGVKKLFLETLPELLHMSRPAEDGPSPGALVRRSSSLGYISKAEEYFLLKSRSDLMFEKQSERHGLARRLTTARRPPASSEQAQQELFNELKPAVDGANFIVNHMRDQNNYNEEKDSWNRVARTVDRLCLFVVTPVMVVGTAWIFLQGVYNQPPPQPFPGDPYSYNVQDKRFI
# T1 sequence (P43681 29-627 K186G/Y218R/T220E/K222F/I229P): as the sequence (P43681 29-627 K186G/Y218R/T220E/K222F/I229P) above
# T1 sequence (P17787 26-502, stated change not applied): as the sequence (P17787 26-502 limits assumed, stated change not applied) above
compound,measurement,setting,value
"Clc1ccc(C2CC3CCC2N3)cn1 (racemic) [Epibatidine, (±) epibatidine]",nH (Hill coefficient),"α4 GREFP β2 AChR [1]; α4 GREFP + β2, ± S.E.",1.3 ± 0.1
"CC(=O)OCC[N+](C)(C)C [ACh, Acetylcholine]",nH (Hill coefficient),α4 GREFP β2 AChR [1],0.81 ± 0.07
"CN1CCC[C@H]1c1cccnc1 [Nicotine, (−)nicotine]",Kd,α2 GFEP β4 AChR [2],0.21 µM
same,nH (Hill coefficient),α2 GFEP β4 AChR [3],0.96 ± 0.1
same,nH (Hill coefficient),α3 GFEP β4 AChR [4],0.75 ± 0.1
same,nH (Hill coefficient),α4 GREFP β4 AChR [5],0.80 ± 0.1
same,nH (Hill coefficient),α4 GREFP β2 AChR [1],1.4 ± 0.1
α-bungarotoxin [α-BTX],Half-life,α2 GFEP β4 AChR [6],9.6 h
same,kdissoc,α2 GFEP β4 AChR [6],2.0 ± 0.3 × 10^−5 s^−1
same,affinity for the toxin (ratio of total to nonspecific binding close to one),wild type α4β2 AChR,negligible affinity
same,Half-life,α7 AChR,133 h
same,kdissoc,α7 AChR,1.5 ± 0.3 × 10^−6 s^−1
same,Half-life,α4 GREFP β4 AChR [7],19 h
same,kdissoc,α4 GREFP β4 AChR [7],1.0 ± 0.1 × 10^−5 s^−1
same,Half-life,α2 GFEP β2 AChR,6.0 h
same,kdissoc,α2 GFEP β2 AChR,3.2 ± 0.3 × 10^−5 s^−1
same,Half-life,α4 GREFP β2 AChR [8],12.6 h
same,dissociation constant from ratio of dissociation to association rate constants,α4 GREFP β2 AChR [8],0.3 nM
same,kdissoc,α4 GREFP β2 AChR [8],1.5 × 10^−5 s^−1 and 1.5 ± 0.2 × 10^−5 s^−1
same,Half-life,α3 GFEP β4 AChR [9],77 h
same,kdissoc,α3 GFEP β4 AChR [9],2.5 ± 0.9 × 10^−6 s^−1
same,Half-life,[10],5.4 h
same,kdissoc,[10],3.5 ± 0.4 × 10^−5 s^−1

# Reference: paper PMC6842095 (Neuropharmacology, 2019)
